pEC50, pKi: −log10 of the molar value. Like-named read-outs stand apart in the source and are kept apart here.
Target: T1, rat CB2 (Rattus norvegicus, UniProt Q9QZN9)
T1 sequence (Q9QZN9 1-360): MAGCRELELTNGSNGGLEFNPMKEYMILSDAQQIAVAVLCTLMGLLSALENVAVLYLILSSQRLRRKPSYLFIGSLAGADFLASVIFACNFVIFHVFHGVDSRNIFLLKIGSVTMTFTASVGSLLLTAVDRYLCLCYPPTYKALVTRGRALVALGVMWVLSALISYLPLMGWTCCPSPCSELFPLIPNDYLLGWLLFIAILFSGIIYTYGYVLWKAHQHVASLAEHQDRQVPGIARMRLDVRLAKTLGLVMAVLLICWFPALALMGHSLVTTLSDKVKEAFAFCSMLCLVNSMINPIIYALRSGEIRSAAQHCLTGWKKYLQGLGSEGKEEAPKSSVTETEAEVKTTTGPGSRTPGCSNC
Assay: [3H]CP55,940 radioligand competition binding, membranes of HEK/GIRK cells expressing rat CB2
Parameters: expressed in transfected cells; host or cells: HEK293 cells stably co-expressing GIRK1/2 channels
Settings: for rCB2 Binding Affinity pKi ± SEM: 0.5 nM [3H]CP55,940, equilibrium; for rCB2 Binding % Max ± SEM: % of specific [3H]CP55,940 binding
Text: Agonists that bind to the receptor at the site occupied by the endogenous ligand (2-AG in this case) are considered orthosteric agonists. It is also possible for an agonist to bind and activate a receptor via a site other than the orthosteric site; these ligands are classified as allosteric agonists. To characterize the nature of the agonist activity of mycophenolate mofetil, we tested its ability to bind to the receptor in equilibrium binding assays using membranes harvested from cells expressing rCB2 using the radioligand [^3H]CP55,940 [40, 60]. CP55,940 has an affinity for both CB1 and CB2 receptors in the low nM range and is reported to bind to the site occupied by 2-AG [61].
Competition binding concentration–response curves were obtained in the presence of 0.5 nM [^3H]CP55,940 using membranes harvested from HEK/GIRK cells expressing rCB2. Data represent the mean ± SEM of three independent experiments run in triplicate. Data are plotted as a percentage of specific [^3H]CP55,940 binding. Non-specific binding was determined in the presence of 10 µM CP55,940.
Membranes were made from HEK/GIRK cells stably expressing rat CB2. Radioligand competition binding assays were performed as previously described, with minor modifications. In brief, compounds were serially diluted into assay buffer with 0.1% bovine serum albumin (BSA) and added to each well of a 96-well plate, along with 20 μg/well cell membrane and approximately 500 pM [^3H]-CP55,940 (specific activity = 104 Ci/mmol, PerkinElmer, Waltham, MA, USA). Following a 3-h incubation period on a shaker at room temperature, membrane-bound ligand was separated from free ligand by filtration through glass fiber 96-well filter plates (Unifilter-96, GF/B; PerkinElmer, Waltham, MA, USA). Forty microliters of scintillation fluid were added to each well, and membrane-bound radioactivity was determined by scintillation counting (Microbeta2; Revvity, Waltham, MA, USA). Nonspecific binding was determined using 10 μM of cold CP55,940.

O=C(NCC1CCOCC1)c1cnc(Nc2ccc(Cl)cc2Cl)nc1C(F)(F)F [GW-842,166X, 2-(2,4-dichloroanilino)-N-(oxan-4-ylmethyl)-4-(trifluoromethyl)pyrimidine-5-carboxamide]
pEC50: < 5.00 | rCB2 Binding Affinity pKi ± SEM: Incomplete | rCB2 Binding % Max ± SEM (0.5 nM [3H]CP55,940): 22 ± 2%

CC1(Cc2ccccc2)COc2cc(C(=O)N3CCCCC3)ccc21 (centres unmarked) [MDA7, 1-[(3-benzyl-3-methyl-2,3-dihydro-1-benzofuran-6-yl)carbonyl]piperidine]
pKi: 6.60 | rCB2 Binding % Max ± SEM (0.5 nM [3H]CP55,940): 5.3 ± 1.7%

COc1c(C)c2c(c(O)c1C/C=C(\C)CCC(=O)OCCN1CCOCC1)C(=O)OC2 [Mycophenolate mofetil]
rCB2 Binding Affinity pKi ± SEM: Incomplete | rCB2 Binding % Max ± SEM (0.5 nM [3H]CP55,940): 20 ± 1% | EC50 (0.5 nM [3H]CP55,940, tested up to 30 µM, read-out: rCB2 Binding pEC50 (incomplete displacement) (converted)): > 10 µM

Reference: paper PMC12112332, “Characterization of Novel and Known Activators of Cannabinoid Receptor Subtype 2 Reveals Mixed Pharmacology That Differentiates Mycophenolate Mofetil and GW-842,166X from MDA7” (International Journal of Molecular Sciences, 2025)
